How the values were obtained:
[1] = system: anti-conjugated biotin CAR T cells; assay: ICCS assay with unconjugated biotin added to the co-incubation; format: cell-based, human; settings: 0 ng, 100 ng, 500 ng, 2 ug unconjugated biotin during 4-hour co-incubation with labelled targets
Procedure: Additionally, unconjugated biotin was added to co-incubating cells for the entire 4-hour co-incubation to determine whether unconjugated biotin can block anti-conjugated biotin binding to target cells. Unconjugated biotin was added at 4 different doses: 0 ng (no competition), 100 ng, 500 ng, and 2 ug. […] The cells were then assessed for production of the intracellular cytokines IFN, IL2, and TNF.
Cytokine expression and activation/exhaustion markers of anti-biotin CAR T cells stimulated with targets cells were examined by ICCS. Target cells were labeled with appropriate intermediate adaptors and washed. T cells were then co-incubated with labeled and unlabeled target cells at an E:T ratio of 1:1 for 4 hours in the presence of Protein Transport Inhibitor (ThermoFisher Scientific) to block cytokine secretion. Cells were incubated in the appropriate medium for each target line. 100× Cell Stimulation Cocktail (ThermoFisher Scientific) was used as a positive control. An anti-CD107a BV711 antibody (BioLegend) was also included with the cells during the incubation. Cells were then labeled for dead cells using FVS520 live/dead stain (BD Horizon), washed, and subsequently FcR Blocked (Miltenyi Biotec). Surface markers were then stained using anti-CD4 PacBlue(BioLegend), anti-CD8 PerCP/Cy5.5 (Biolegend), and erbitux-APC (BD Biosciences). […]

[2] = system: anti-conjugated biotin CARs; assay: Competition assay against biotin-PEG-Cy5 binding (flow cytometry); design: species or system human; settings: 440 nM biotin-PEG-Cy5 with 0.2, 1, 5 or 20 nM competitor, 30 minutes, room temperature
Procedure: First, cells expressing various CARs were incubated with 440 nM of biotin-PEG-Cy5 (FIG. 6) for 30 minutes at room temperature. Concurrently, they were exposed to 0 nM (no competition), 0.2 nM, 1 nM, 5 nM, or 20 nM of either unconjugated biotin or a non-fluorescent conjugated biotin (FIG. 7A).
One differentiating factor for this CAR when compared with other biotin-binding receptors previously described^28,29,31 is that the CAR may bind any biotin derivative but not the unmodified molecule itself (FIG. 2B). To confirm this selective binding to biotin conjugates, the panel of CAR T cells was incubated with 440 nM of a biotin-PEG-Cy5 conjugate, and titrated doses (20 nM, 5 nM, 1 nM, and 0.2 nM) of competition were incubated concurrently with the soluble antigen. Competition included another conjugated biotin, biotin-PEG2k-folate (FIG. 7A), and unmodified biotin (FIG. 7B).
To confirm anti-biotin CAR T cell binding to conjugated biotin, 440 nM of a 1.1 kDa biotin-PEG-Cy5 (Click Chemistry Tools) conjugate was incubated with the cells for 30 min at room temperature. For the competition assay, 0.2 nM, 1 nM, 5 nM, or 20 nM of either 2 kDa biotin-folate (NanoCS) or unconjugated biotin (Sigma-Adrich) were incubated concurrently with the cells and biotin-PEG-Cy5. Cells were washed and fixed in a 0.5% paraformaldehyde solution. […]

O=C(O)CCCC[C@@H]1SC[C@@H]2NC(=O)N[C@@H]21 [unconjugated biotin, biotin]
impact of unconjugated biotin on activation markers (CD8+ CAR T cells) [1]: no impact on the activation profiles of the CAR T cells | impact of unconjugated biotin on intracellular cytokines (CD4+ CAR T cells) [1]: no impact on the activation profiles of the CAR T cells | MFI of biotin-PEG-Cy5 binding under competition [2]: not negatively impacted in their ability to bind biotin conjugated to fluorescent Cy5 | MFI of biotin-PEG-Cy5 binding under competition ([2]; listed as unmodified biotin): no decrease in MFI

Reference: patent publication US20260184759A1, “CHIMERIC ANTIGEN RECEPTORS SPECIFIC FOR CONJUGATED BIOTIN” (Seattle Children's Hospital (dba Seattle Children's …, priority 2022, published 2026)
